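Results reflect a 48-hour exposure of cells in 96-well plates to compound at five concentrations. The concentration for 50% growth inhibition is given as GI50.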 The source made the active and inactive calls. No stated cut-off is given here; in the data, active = GI50 up to about 1.1 µM and inactive = higher.
Legend:
Assay in all cases: NCI-60 cell line screen, 48 h
[1] = test system: RPMI-8226
[2] = test system: HT-29
[3] = test system: SN12C
[4] = test system: A498
[5] = test system: SW-620
[6] = test system: SF-295
[7] = test system: SF-268
[8] = test system: TK-10
[9] = test system: UO-31
[10] = test system: PC-3
[11] = test system: OVCAR-5
[12] = test system: Hs-578T
[13] = test system: COLO 205
[14] = test system: A549
[15] = test system: CAKI-1
[16] = test system: HOP-92
[17] = test system: HCT-116
[18] = test system: BT-549
[19] = test system: DU-145

Measured: GI50

Cc1cc(O)cc2c1c(=O)c1ccccc1n2C
inactive: [1] > 100 µM | [2] > 100 µM | [3] > 100 µM | [4] 45.3 µM | [5] > 100 µM | [6] 52.2 µM | [7] 31.7 µM | [8] 46.9 µM | [9] > 100 µM | [10] > 100 µM | [11] > 100 µM | [12] 37.1 µM | [13] > 100 µM | [14] > 100 µM | [15] > 100 µM | [16] 39.4 µM | [17] 54.7 µM | [18] 50.6 µM | [19] > 100 µM

CCCCCC(=O)Nc1[nH]nnc1C#N
inactive: [1] > 100 µM | [2] > 100 µM | [3] > 100 µM | [4] > 100 µM | [5] > 100 µM | [6] > 100 µM | [7] > 100 µM | [8] > 100 µM | [9] > 100 µM | [10] > 100 µM | [11] > 100 µM | [12] > 100 µM | [13] > 100 µM | [14] > 100 µM | [15] > 100 µM | [16] > 100 µM | [17] > 100 µM | [18] > 100 µM | [19] > 100 µM

O=C1C[C@@H](Sc2ccccc2)C2(OCCO2)C2ON3CCCC[C@H]3[C@H]12 (some centres not stated)
inactive: [1] 3.07 µM | [2] 4.75 µM | [3] 3.82 µM | [4] 30.5 µM | [5] 3.63 µM | [6] 15.9 µM | [7] 7.55 µM | [8] 6.34 µM | [9] 3.75 µM | [10] 7.36 µM | [11] 17.7 µM | [12] 10.8 µM | [13] 7.8 µM | [14] 7.36 µM | [15] 7.71 µM | [16] 7 µM | [17] 4.33 µM | [18] 5.81 µM | [19] 12.1 µM

COC(=O)NC(Cc1ccccc1)NC(C)=O (configuration not stated)
inactive: [1] > 100 µM | [2] > 100 µM | [3] > 100 µM | [4] > 100 µM | [5] > 100 µM | [6] > 100 µM | [7] > 100 µM | [8] > 100 µM | [9] > 100 µM | [10] > 100 µM | [11] > 100 µM | [12] 5.3 µM | [13] > 100 µM | [14] > 100 µM | [15] > 100 µM | [16] > 100 µM | [17] > 100 µM | [18] > 100 µM | [19] > 100 µM

CN(C)c1ccc(/C=N\NC(=O)c2ccccc2Nc2ccccc2C(=O)N/N=C/c2ccc(N(C)C)cc2)cc1
inactive: [1] > 100 µM | [2] > 100 µM | [3] > 100 µM | [4] > 100 µM | [5] > 100 µM | [6] > 100 µM | [7] > 100 µM | [8] > 100 µM | [9] > 100 µM | [10] > 100 µM | [11] 28.5 µM | [12] > 100 µM | [13] 97.5 µM | [14] > 100 µM | [15] > 100 µM | [16] > 100 µM | [17] > 100 µM | [18] > 100 µM | [19] > 100 µM

COc1ccc(CNc2ccn(C3OC(CO)C(O)C3O)c(=O)n2)cc1 (configuration not stated)
inactive: [1] 86.9 µM | [2] 46.3 µM | [3] > 100 µM | [4] > 100 µM | [5] > 100 µM | [6] > 100 µM | [7] > 100 µM | [8] > 100 µM | [9] 81.7 µM | [10] > 100 µM | [11] > 100 µM | [12] > 100 µM | [13] > 100 µM | [14] > 100 µM | [15] > 100 µM | [16] 47.1 µM | [17] 55.5 µM | [18] 62.5 µM | [19] > 100 µM

CC(=O)Nc1nc(C)c(S(=O)(=O)NC(=O)N2c3ccccc3CCc3ccccc32)s1
inactive: [1] > 100 µM | [2] > 100 µM | [3] > 100 µM | [4] > 100 µM | [5] > 100 µM | [6] > 100 µM | [7] > 100 µM | [8] > 100 µM | [9] > 100 µM | [10] > 100 µM | [11] > 100 µM | [12] > 100 µM | [13] > 100 µM | [14] > 100 µM | [15] > 100 µM | [16] > 100 µM | [17] > 100 µM | [18] > 100 µM | [19] > 100 µM

Cn1c(-c2ccccc2)cc2c3ccsc3c3ccsc3c21
inactive: [1] > 100 µM | [2] > 100 µM | [3] > 100 µM | [4] > 100 µM | [5] > 100 µM | [6] > 100 µM | [7] > 100 µM | [8] 21.3 µM | [9] > 100 µM | [10] > 100 µM | [11] > 100 µM | [12] > 100 µM | [13] > 100 µM | [14] > 100 µM | [15] > 100 µM | [16] > 100 µM | [17] > 100 µM | [18] > 100 µM | [19] > 100 µM
